# Laboratory results taken from patent US20240109917A1 (ACTELION PHARMACEUTICALS LTD, priority 2020, published 2024).
# Biological target: VEGFR2, unphosphorylated (Homo sapiens (Human), UniProt P35968)
# Assay: VEGFR ADP GLO Assay
# Assay type: biochemical
# Chain of VEGFR2, unphosphorylated (P35968 20-1356): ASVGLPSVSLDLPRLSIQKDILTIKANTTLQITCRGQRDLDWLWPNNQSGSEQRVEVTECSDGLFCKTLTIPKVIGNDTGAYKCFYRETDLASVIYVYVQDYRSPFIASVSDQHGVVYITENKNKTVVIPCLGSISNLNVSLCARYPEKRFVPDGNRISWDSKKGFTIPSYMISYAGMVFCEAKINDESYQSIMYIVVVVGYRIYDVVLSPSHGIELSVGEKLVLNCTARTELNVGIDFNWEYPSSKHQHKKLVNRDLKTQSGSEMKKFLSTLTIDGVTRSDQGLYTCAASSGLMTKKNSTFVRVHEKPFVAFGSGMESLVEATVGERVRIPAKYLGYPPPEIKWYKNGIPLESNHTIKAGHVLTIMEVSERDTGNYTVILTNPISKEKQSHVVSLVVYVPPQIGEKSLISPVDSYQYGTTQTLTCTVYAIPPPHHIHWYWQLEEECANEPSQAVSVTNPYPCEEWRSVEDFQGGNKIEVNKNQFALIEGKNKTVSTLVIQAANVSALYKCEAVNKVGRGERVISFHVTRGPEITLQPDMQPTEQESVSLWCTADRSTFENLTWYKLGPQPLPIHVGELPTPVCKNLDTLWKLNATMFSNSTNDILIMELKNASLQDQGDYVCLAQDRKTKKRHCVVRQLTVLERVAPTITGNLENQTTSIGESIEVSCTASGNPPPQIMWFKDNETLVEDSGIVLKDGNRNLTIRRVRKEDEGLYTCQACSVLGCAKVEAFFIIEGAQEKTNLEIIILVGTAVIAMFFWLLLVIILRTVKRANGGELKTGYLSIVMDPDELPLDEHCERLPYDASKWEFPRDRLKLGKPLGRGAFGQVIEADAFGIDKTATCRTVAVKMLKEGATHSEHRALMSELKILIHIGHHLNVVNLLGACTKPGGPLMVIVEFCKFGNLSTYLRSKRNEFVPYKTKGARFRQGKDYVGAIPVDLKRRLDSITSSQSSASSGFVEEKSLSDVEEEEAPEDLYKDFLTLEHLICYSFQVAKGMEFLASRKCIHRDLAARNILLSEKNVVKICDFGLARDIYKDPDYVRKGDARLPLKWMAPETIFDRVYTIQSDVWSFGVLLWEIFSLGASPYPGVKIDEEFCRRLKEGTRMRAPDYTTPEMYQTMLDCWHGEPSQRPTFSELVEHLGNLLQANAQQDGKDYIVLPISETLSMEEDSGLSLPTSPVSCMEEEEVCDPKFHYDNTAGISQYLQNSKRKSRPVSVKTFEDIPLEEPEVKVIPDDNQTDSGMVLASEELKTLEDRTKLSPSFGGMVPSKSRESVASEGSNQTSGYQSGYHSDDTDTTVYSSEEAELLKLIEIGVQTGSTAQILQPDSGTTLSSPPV
row,Compound,IC50 [µM]
1,"Cc1ncc(NC(=O)CN2CCC(C)(C)C2)cc1NC(=O)c1cnn2cc(-c3cnn(CCO)c3)sc12 [Example 28, N-(5-(2-(3,3-dimethylpyrrolidin-1-yl)acetamido)-2-methylpyridin-3-yl)-2-(1-(2-hydroxyethyl)-1H-pyrazol-4-yl)pyrazolo[5,1-b]thiazole-7-carboxamide]",> 7.5
2,"COCCCc1cn2ncc(C(=O)Nc3cc(C(=O)NCCN4CCCC4(C)C)cnc3C)c2s1 [Example 360, N-(5-((2-(2,2-dimethylpyrrolidin-1-yl)ethyl)carbamoyl)-2-methylpyridin-3-yl)-2-(3-methoxypropyl)pyrazolo[5,1-b]thiazole-7-carboxamide]",> 7.5
3,"COc1cccc(-c2cn3ncc(C(=O)Nc4cc(NC(=O)CN5C[C@H](C)O[C@@H](C)C5)cnc4C)c3s2)n1 (relative stereo) [Example 386, N-(5-(2-(trans-2,6-dimethylmorpholino)acetamido)-2-methylpyridin-3-yl)-2-(6-methoxypyridin-2-yl)pyrazolo[5,1-b]thiazole-7-carboxamide]",> 0.833
4,"Cc1ncc(NC(=O)[C@H]2CCCN2C(C)C)cc1NC(=O)c1cnn2cc(-c3cnn4c3OCCC4)sc12 [Example 347, (R)-2-(6,7-dihydro-5H-pyrazolo[5,1-b][1,3]oxazin-3-yl)-N-(5-(1-isopropylpyrrolidine-2-carboxamido)-2-methylpyridin-3-yl)pyrazolo[5,1-b]thiazole-7-carboxamide]",> 7.5
5,"COCCn1cc(-c2cn3ncc(C(=O)Nc4cc(NC(=O)[C@H]5CCCN5C(C)C)cnc4C)c3s2)cn1 [Example 344, (R)—N-(5-(1-isopropylpyrrolidine-2-carboxamido)-2-methylpyridin-3-yl)-2-(1-(2-methoxyethyl)-1H-pyrazol-4-yl)pyrazolo[5,1-b]thiazole-7-carboxamide]",> 7.5
6,"COC/C=C/c1cn2ncc(C(=O)Nc3cc(C(=O)NCCN4CCCC4(C)C)cnc3C)c2s1 [Example 361, (E)-N-(5-((2-(2,2-dimethylpyrrolidin-1-yl)ethyl)carbamoyl)-2-methylpyridin-3-yl)-2-(3-methoxyprop-1-en-1-yl)pyrazolo[5,1-b]thiazole-7-carboxamide]",> 7.5
7,"COc1ncc(-c2cn3ncc(C(=O)Nc4cc(NC(=O)CN5CC(C)(C)C5)cnc4C)c3s2)c(OC)n1 [Example 392, 2-(2,4-dimethoxypyrimidin-5-yl)-N-(5-(2-(3,3-dimethylazetidin-1-yl)acetamido)-2-methylpyridin-3-yl)pyrazolo[5,1-b]thiazole-7-carboxamide]",7.44
8,"COCCn1cc(-c2cn3ncc(C(=O)Nc4cc(NC(=O)CN5CCCC5)cnc4C)c3s2)cn1 [Example 337, 2-(1-(2-methoxyethyl)-1H-pyrazol-4-yl)-N-(2-methyl-5-(2-(pyrrolidin-1-yl)acetamido)pyridin-3-yl)pyrazolo[5,1-b]thiazole-7-carboxamide]",> 7.5
9,"COc1ccncc1-c1cn2ncc(C(=O)Nc3cc(NC(=O)CN4C[C@H](C)O[C@@H](C)C4)cnc3C)c2s1 (relative stereo) [Example 385, N-(5-(2-(trans-2,6-dimethylmorpholino)acetamido)-2-methylpyridin-3-yl)-2-(4-methoxypyridin-3-yl)pyrazolo[5,1-b]thiazole-7-carboxamide]",> 0.833
10,"COc1ncccc1-c1cn2ncc(C(=O)Nc3cc(NC(=O)CN4CC5(CCOCC5)C4)cnc3C)c2s1 [Example 403, N-(5-(2-(7-oxa-2-azaspiro[3.5]nonan-2-yl)acetamido)-2-methylpyridin-3-yl)-2-(2-methoxypyridin-3-yl)pyrazolo[5,1-b]thiazole-7-carboxamide carboxamide]",> 7.5
11,"Cc1ncc(NC(=O)[C@@H]2CCCN2C)cc1NC(=O)c1cnn2cc(-c3cnn4c3OCCC4)sc12 [Example 349, (S)-2-(6,7-dihydro-5H-pyrazolo[5,1-b][1,3]oxazin-3-yl)-N-(2-methyl-5-(1-methylpyrrolidine-2-carboxamido)pyridin-3-yl)pyrazolo[5,1-b]thiazole-7-carboxamide]",> 7.5
12,"Cc1ncc(NC(=O)CN2CCCC[C@H]2C)cc1NC(=O)c1cnn2cc(-c3cnn(CCO)c3)sc12 [Example 33, (R)-2-(1-(2-hydroxyethyl)-1H-pyrazol-4-yl)-N-(2-methyl-5-(2-(2-methyl-piperidin-1-yl)acetamido)pyridin-3-yl)pyrazolo[5,1-b]thiazole-7-carboxamide]",> 7.5
13,"COCC1CN(CC(=O)Nc2cnc(C)c(NC(=O)c3cnn4cc(-c5cnn(C)c5)sc34)c2)CC(C)(C)O1 (stereo not shown) [Example 383, N-(5-(2-(6-(methoxymethyl)-2,2-dimethylmorpholino)acetamido)-2-methylpyridin-3-yl)-2-(1-methyl-1H-pyrazol-4-yl)pyrazolo[5,1-b]thiazole-7-carboxamide]",> 2.5
14,"COC/C=C/c1cn2ncc(C(=O)Nc3cc(NC(=O)CN4C[C@H](C)O[C@@H](C)C4)cnc3C)c2s1 (relative stereo) [Example 367, N-(5-(2-(trans-2,6-dimethylmorpholino)acetamido)-2-methylpyridin-3-yl)-2-((E)-3-methoxyprop-1-en-1-yl)pyrazolo[5,1-b]thiazole-7-carboxamide]",> 7.5
15,"Cc1ncc(NC(=O)CN2C[C@H](C)O[C@@H](C)C2)cc1NC(=O)c1cnn2cc(-c3c(C)n[nH]c3C)sc12 (relative stereo) [Example 373, 2-(3,5-dimethyl-1H-pyrazol-4-yl)-N-(5-(2-(trans-2,6-dimethylmorpholino)acetamido)-2-methylpyridin-3-yl)pyrazolo[5,1-b]thiazole-7-carboxamide]",> 7.5
16,"Cc1ncc(NC(=O)C2CCN(C(C)C)C2)cc1NC(=O)c1cnn2cc(-c3cnn(C)c3C)sc12 (stereo not shown) [Example 356, 2-(1,5-dimethyl-1H-pyrazol-4-yl)-N-(5-(1-isopropylpyrrolidine-3-carboxamido)-2-methylpyridin-3-yl)pyrazolo[5,1-b]thiazole-7-carboxamide]",> 7.5
17,"COCCn1cc(-c2cn3ncc(C(=O)Nc4cc(NC(=O)CN5CCC(C6CC6)C5)cnc4C)c3s2)cn1 (stereo not shown) [Example 341, N-(5-(2-(3-cyclopropylpyrrolidin-1-yl)acetamido)-2-methylpyridin-3-yl)-2-(1-(2-methoxyethyl)-1H-pyrazol-4-yl)pyrazolo[5,1-b]thiazole-7-carboxamide]",> 7.5
18,"COc1ncccc1-c1cn2ncc(C(=O)Nc3cc(NC(=O)CN4CC(F)C4)cnc3C)c2s1 [Example 402, N-(5-(2-(3-fluoroazetidin-1-yl)acetamido)-2-methylpyridin-3-yl)-2-(2-methoxypyridin-3-yl)pyrazolo[5,1-b]thiazole-7-carboxamide]",> 7.5
19,"Cc1ncc(NC(=O)CN2CCCC23CCC3)cc1NC(=O)c1cnn2cc(-c3cnn(CCO)c3)sc12 [Example 29, N-(5-(2-(5-azaspiro[3.4]octan-5-yl)acetamido)-2-methylpyridin-3-yl)-2-(1-(2-hydroxyethyl)-1H-pyrazol-4-yl)pyrazolo[5,1-b]thiazole-7-carboxamide]",> 7.5
20,"Cc1ncc(C(=O)NCCN2CCCC2(C)C)cc1NC(=O)c1cnn2cc(-c3cnn(Cc4cc(O)no4)c3)sc12 [Example 363, N-(5-((2-(2,2-dimethylpyrrolidin-1-yl)ethyl)carbamoyl)-2-methylpyridin-3-yl)-2-(1-((3-hydroxyisoxazol-5-yl)methyl)-1H-pyrazol-4-yl)pyrazolo[5,1-b]thiazole-7-carboxamide]",> 7.5
21,"Cc1ncc(NC(=O)CN2C[C@H](C)O[C@@H](C)C2)cc1NC(=O)c1cnn2cc(-c3cc[nH]n3)sc12 (relative stereo) [Example 374, N-(5-(2-(trans-2,6-dimethylmorpholino)acetamido)-2-methylpyridin-3-yl)-2-(1H-pyrazol-3-yl)pyrazolo[5,1-b]thiazole-7-carboxamide]",> 7.5
22,"Cc1ncc(NC(=O)CN2C[C@H](C)O[C@@H](C)C2)cc1NC(=O)c1cnn2cc(-c3cc[nH]c3)sc12 [Example 365, N-(5-(2-(2,6-trans-dimethylmorpholino)acetamido)-2-methylpyridin-3-yl)-2-(1H-pyrrol-3-yl)pyrazolo[5,1-b]thiazole-7-carboxamide]",0.596
23,"Cc1ncc(C(=O)NCCN2CCCC2(C)C)cc1NC(=O)c1cnn2cc(-c3cnn(Cc4cc(OCc5ccccc5)no4)c3)sc12 [Example 362, 2-(1-((3-(benzyloxy)isoxazol-5-yl)methyl)-1H-pyrazol-4-yl)-N-(5-((2-(2,2-dimethylpyrrolidin-1-yl)ethyl)carbamoyl)-2-methylpyridin-3-yl)pyrazolo[5,1-b]thiazole-7-carboxamide]",> 2.5
24,"Cc1ncc(NC(=O)CN2CCC[C@@H]2C)cc1NC(=O)c1cnn2cc(-c3cnn(C)c3)sc12 [Example 27, (S)-2-(1-methyl-1H-pyrazol-4-yl)-N-(2-methyl-5-(2-(2-methyl-pyrrolidin-1-yl)acetamido)pyridin-3-yl)pyrazolo[5,1-b]thiazole-7-carboxamide]",> 7.5
25,"COc1cc(-c2cn3ncc(C(=O)Nc4cc(NC(=O)CN5CC(C)(C)C5)cnc4C)c3s2)c(OC)nn1 [Example 393, 2-(3,6-dimethoxypyridazin-4-yl)-N-(5-(2-(3,3-dimethylazetidin-1-1)acetamido)-2-methylpyridin-3-yl)pyrazolo[5,1-b]thiazole-7-carboxamide]",> 7.5
26,"Cc1ncc(NC(=O)CN2C[C@@H](CO)OC(C)(C)C2)cc1NC(=O)c1cnn2cc(-c3cnn(C)c3)sc12 [Example 377, (S)—N-(5-(2-(6-(hydroxymethyl)-2,2-dimethylmorpholino)acetamido)-2-methylpyridin-3-yl)-2-(1-methyl-1H-pyrazol-4-yl)pyrazolo[5,1-b]thiazole-7-carboxamide]",> 7.5
27,"CCc1ncccc1-c1cn2ncc(C(=O)Nc3cc(NC(=O)CN4CC(C)(C)C4)cnc3C)c2s1 [Example 391, N-(5-(2-(3,3-dimethylazetidin-1-yl)acetamido)-2-methylpyridin-3-yl)-2-(2-ethylpyridin-3-yl)pyrazolo[5,1-b]thiazole-7-carboxamide]",> 7.5
28,"COCCn1cc(-c2cn3ncc(C(=O)Nc4cc(NC(=O)CN5CCC(C)(C)C5)cnc4C)c3s2)cn1 [Example 336, N-(5-(2-(3,3-dimethylpyrrolidin-1-yl)acetamido)-2-methylpyridin-3-yl)-2-(1-(2-methoxyethyl)-1H-pyrazol-4-yl)pyrazolo[5,1-b]thiazole-7-carboxamide]",> 7.5
